# Results reported in patent US10323007B1, “N2N N4-disubstituted quinazoline-2,4-diamines and uses thereof” (University of South Florida, priority 2016, dated 2019).
# System: A. baumannii 1403 biofilm
# Test: biofilm eradication determination assay, strain 1403
# Format: cell-based, Acinetobacter baumannii
# Conditions: 90% biofilm eradication, Table 8
# Procedure: (§1) These assays were performed as described by us previously,^26,24 as follows. Each of the A. baumannii strains were grown overnight in Mueller Hinton Broth (MHB). The next day these were used to seed fresh MHB to an OD600 of 0.5, with 150 μL then added to the wells of a 96 well plate and grown for 24 hours at 37° C. After 24 hours, the planktonic bacteria were carefully removed and fresh MHB was added with increasing concentrations of lead quinazolines. After incubation at 37° C. for 24 hours, planktonic cells were removed and biofilms were washed three times with phosphate buffered saline (PBS). Biofilms were then resuspended in PBS and plated for cell viability on tryptic soy agar. Biofilm recovery was assessed compared to no drug controls, and determined as percent eradication. This was used to determine MBEC90 values (Minimal Biofilm Eradication Concentration), where the viability of cells within the biofilm was reduced by 90%.
row,SMILES,MBEC90 1403 [µM]
1,"CNc1nc(NCc2ccccc2)nc2ccc(C3=CCCCC3)cc12 [Compound 29, N^2-Benzyl-6-(cyclohex-1-en-1-yl)-N^4-methylquinazoline-2,4-diamine]",20

# System: A. baumannii 1651
# Test: minimal bactericidal concentration (MBC) assay, strain 1651
# Format: cell-based
# Conditions: Acinetobacter baumannii, Table 8, read-out: MBC90 1651
# Description: (§2) Lead quinazolines 4, 5, 26, 29, 27, and 30 were selected to be further evaluated for antimicrobial effects. The first assay utilized was a minimal bactericidal concentration (MBC) assay, to assess whether leads compounds were bacteriostatic or bactericidal. The six lead agents were screened to identify their MBC90 towards each of the six A. baumannii isolates used in the SAR studies (Table 8), however for simplicity only the representative data for isolate 1646 is detailed below (Table 6). […] Further to this, we were able to obtain complete eradication of bacterial growth for these two compounds at 1 μM for 24 and 5 μM for 25.
# (§3) MIC and MBC assays were performed in this study as documented by us previously.^17,23,24,25 The A. baumannii strains used are detailed in Table 7.
row,SMILES,MBC [µM]
1,"CNc1nc(NCc2ccccc2)nc2ccc(C3=CCCCC3)cc12 [Compound 29, N^2-Benzyl-6-(cyclohex-1-en-1-yl)-N^4-methylquinazoline-2,4-diamine]",4

# System: A. baumannii 1646
# Test: MIC assay, strain 1646
# Format: cell-based, Acinetobacter baumannii
# Conditions: Acinetobacter baumannii; Table 6; representative data for isolate 1646; read-out: MIC
# Procedure: as §3
row,SMILES,MIC [µM]
1,"CNc1nc(NCc2ccccc2)nc2ccc(C3=CCCCC3)cc12 [Compound 29, N^2-Benzyl-6-(cyclohex-1-en-1-yl)-N^4-methylquinazoline-2,4-diamine]",2

# Same assay, conditions: Acinetobacter baumannii; strain 1646; Tables 1, 3, 4, 5 and footnotes; read-out: 1646 MIC
row,SMILES,MIC [µM]
1,"CNc1nc(NCc2ccccc2)nc2ccc(C3=CCCCC3)cc12 [Compound 29, N^2-Benzyl-6-(cyclohex-1-en-1-yl)-N^4-methylquinazoline-2,4-diamine]",2

# Same assay, conditions: Acinetobacter baumannii; strain 1646; lead quinazolines, Table 8; read-out: MIC 1646
row,SMILES,MIC [µM]
1,"CNc1nc(NCc2ccccc2)nc2ccc(C3=CCCCC3)cc12 [Compound 29, N^2-Benzyl-6-(cyclohex-1-en-1-yl)-N^4-methylquinazoline-2,4-diamine]",2

# System: A. baumannii 1650 biofilm
# Test: biofilm eradication determination assay, strain 1650
# Format: cell-based, Acinetobacter baumannii
# Conditions: 90% biofilm eradication, Table 8
# Procedure: as §1
row,SMILES,MBEC90 1650 [µM]
1,"CNc1nc(NCc2ccccc2)nc2ccc(C3=CCCCC3)cc12 [Compound 29, N^2-Benzyl-6-(cyclohex-1-en-1-yl)-N^4-methylquinazoline-2,4-diamine]",48

# System: A. baumannii 1651 biofilm
# Test: biofilm eradication determination assay, strain 1651
# Format: cell-based, Acinetobacter baumannii
# Conditions: 90% biofilm eradication, Table 8
# Procedure: as §1
row,SMILES,MBEC90 1651 [µM]
1,"CNc1nc(NCc2ccccc2)nc2ccc(C3=CCCCC3)cc12 [Compound 29, N^2-Benzyl-6-(cyclohex-1-en-1-yl)-N^4-methylquinazoline-2,4-diamine]",21

# System: A. baumannii 1646 biofilm
# Test: biofilm eradication determination assay, strain 1646
# Format: cell-based, Acinetobacter baumannii
# Conditions: Table 6; representative data for isolate 1646
# Procedure: as §1
row,SMILES,MBEC90 [µM]
1,"CNc1nc(NCc2ccccc2)nc2ccc(C3=CCCCC3)cc12 [Compound 29, N^2-Benzyl-6-(cyclohex-1-en-1-yl)-N^4-methylquinazoline-2,4-diamine]",8.9

# Same assay, conditions: at 50 μM; strain 1646
row,SMILES,reduction in biofilm viability [log]
1,"CNc1nc(NCc2ccccc2)nc2ccc(C3=CCCCC3)cc12 [Compound 29, N^2-Benzyl-6-(cyclohex-1-en-1-yl)-N^4-methylquinazoline-2,4-diamine]",1.6

# Same assay, conditions: strain 1646; 90% biofilm eradication; Table 8 and text
row,SMILES,MBEC90 1646 [µM]
1,"CNc1nc(NCc2ccccc2)nc2ccc(C3=CCCCC3)cc12 [Compound 29, N^2-Benzyl-6-(cyclohex-1-en-1-yl)-N^4-methylquinazoline-2,4-diamine]",8.9

# System: A. baumannii 1403
# Test: minimal bactericidal concentration (MBC) assay, strain 1403
# Format: cell-based
# Conditions: Acinetobacter baumannii, Table 8, read-out: MBC90 1403
# Description: as §2, §3
row,SMILES,MBC [µM]
1,"CNc1nc(NCc2ccccc2)nc2ccc(C3=CCCCC3)cc12 [Compound 29, N^2-Benzyl-6-(cyclohex-1-en-1-yl)-N^4-methylquinazoline-2,4-diamine]",22

# System: A. baumannii 1649
# Test: minimal bactericidal concentration (MBC) assay, strain 1649
# Format: cell-based
# Conditions: Acinetobacter baumannii, Table 8, read-out: MBC90 1649
# Description: as §2, §3
row,SMILES,MBC [µM]
1,"CNc1nc(NCc2ccccc2)nc2ccc(C3=CCCCC3)cc12 [Compound 29, N^2-Benzyl-6-(cyclohex-1-en-1-yl)-N^4-methylquinazoline-2,4-diamine]",9.1

# System: A. baumannii 1646
# Test: minimal bactericidal concentration (MBC) assay, strain 1646
# Format: cell-based, Acinetobacter baumannii
# Conditions: Acinetobacter baumannii, 1646, strain 1646; Table 8 and text; read-out: MBC90 1646
# Description: as §2, §3
row,SMILES,MBC [µM]
1,"CNc1nc(NCc2ccccc2)nc2ccc(C3=CCCCC3)cc12 [Compound 29, N^2-Benzyl-6-(cyclohex-1-en-1-yl)-N^4-methylquinazoline-2,4-diamine]",1.5

# Same assay, conditions: Acinetobacter baumannii; Table 6; representative data for isolate 1646; read-out: MBC90
row,SMILES,MBC [µM]
1,"CNc1nc(NCc2ccccc2)nc2ccc(C3=CCCCC3)cc12 [Compound 29, N^2-Benzyl-6-(cyclohex-1-en-1-yl)-N^4-methylquinazoline-2,4-diamine]",1.5

# System: A. baumannii
# Test: MIC assay, A. baumannii isolates (strain not given)
# Format: cell-based, Acinetobacter baumannii
# Conditions: Acinetobacter baumannii; most isolates besides the 1652 strain; read-out: MIC against most isolates
# Procedure: as §3
row,SMILES,MIC [µM]
1,"CNc1nc(NCc2ccccc2)nc2ccc(C3=CCCCC3)cc12 [Compound 29, N^2-Benzyl-6-(cyclohex-1-en-1-yl)-N^4-methylquinazoline-2,4-diamine]",2

# System: A. baumannii 1650
# Test: MIC assay, strain 1650
# Format: cell-based, Acinetobacter baumannii
# Conditions: Acinetobacter baumannii; strain 1650; Tables 1, 3, 4, 5 and footnotes; read-out: 1650 MIC
# Procedure: as §3
row,SMILES,MIC [µM]
1,"CNc1nc(NCc2ccccc2)nc2ccc(C3=CCCCC3)cc12 [Compound 29, N^2-Benzyl-6-(cyclohex-1-en-1-yl)-N^4-methylquinazoline-2,4-diamine]",10

# Same assay, conditions: Acinetobacter baumannii; strain 1650; lead quinazolines, Table 8; read-out: MIC 1650
row,SMILES,MIC [µM]
1,"CNc1nc(NCc2ccccc2)nc2ccc(C3=CCCCC3)cc12 [Compound 29, N^2-Benzyl-6-(cyclohex-1-en-1-yl)-N^4-methylquinazoline-2,4-diamine]",10

# System: A. baumannii 1649
# Test: MIC assay, strain 1649
# Format: cell-based, Acinetobacter baumannii
# Conditions: Acinetobacter baumannii; strain 1649; Tables 1, 3, 4, 5 and footnotes; read-out: 1649 MIC
# Procedure: as §3
row,SMILES,MIC [µM]
1,"CNc1nc(NCc2ccccc2)nc2ccc(C3=CCCCC3)cc12 [Compound 29, N^2-Benzyl-6-(cyclohex-1-en-1-yl)-N^4-methylquinazoline-2,4-diamine]",10

# Same assay, conditions: Acinetobacter baumannii; strain 1649; lead quinazolines, Table 8; read-out: MIC 1649
row,SMILES,MIC [µM]
1,"CNc1nc(NCc2ccccc2)nc2ccc(C3=CCCCC3)cc12 [Compound 29, N^2-Benzyl-6-(cyclohex-1-en-1-yl)-N^4-methylquinazoline-2,4-diamine]",8

# System: A. baumannii 1651
# Test: MIC assay, strain 1651
# Format: cell-based, Acinetobacter baumannii
# Conditions: Acinetobacter baumannii; strain 1651; Tables 1, 3, 4, 5 and footnotes; read-out: 1651 MIC
# Procedure: as §3
row,SMILES,MIC [µM]
1,"CNc1nc(NCc2ccccc2)nc2ccc(C3=CCCCC3)cc12 [Compound 29, N^2-Benzyl-6-(cyclohex-1-en-1-yl)-N^4-methylquinazoline-2,4-diamine]",2

# Same assay, conditions: Acinetobacter baumannii; strain 1651; lead quinazolines, Table 8; read-out: MIC 1651
row,SMILES,MIC [µM]
1,"CNc1nc(NCc2ccccc2)nc2ccc(C3=CCCCC3)cc12 [Compound 29, N^2-Benzyl-6-(cyclohex-1-en-1-yl)-N^4-methylquinazoline-2,4-diamine]",2

# System: A. baumannii 1652
# Test: minimal bactericidal concentration (MBC) assay, strain 1652
# Format: cell-based
# Conditions: Acinetobacter baumannii, Table 8, read-out: MBC90 1652
# Description: as §2, §3
row,SMILES,MBC [µM]
1,"CNc1nc(NCc2ccccc2)nc2ccc(C3=CCCCC3)cc12 [Compound 29, N^2-Benzyl-6-(cyclohex-1-en-1-yl)-N^4-methylquinazoline-2,4-diamine]",11

# System: A. baumannii 1403
# Test: MIC assay, strain 1403
# Format: cell-based, Acinetobacter baumannii
# Conditions: Acinetobacter baumannii; strain 1403; Tables 1, 3, 4, 5 and footnotes; read-out: 1403 MIC
# Procedure: as §3
row,SMILES,MIC [µM]
1,"CNc1nc(NCc2ccccc2)nc2ccc(C3=CCCCC3)cc12 [Compound 29, N^2-Benzyl-6-(cyclohex-1-en-1-yl)-N^4-methylquinazoline-2,4-diamine]",2

# Same assay, conditions: Acinetobacter baumannii; strain 1403; lead quinazolines, Table 8; read-out: MIC 1403
row,SMILES,MIC [µM]
1,"CNc1nc(NCc2ccccc2)nc2ccc(C3=CCCCC3)cc12 [Compound 29, N^2-Benzyl-6-(cyclohex-1-en-1-yl)-N^4-methylquinazoline-2,4-diamine]",3

# System: A. baumannii 1650
# Test: minimal bactericidal concentration (MBC) assay, strain 1650
# Format: cell-based
# Conditions: Acinetobacter baumannii, Table 8, read-out: MBC90 1650
# Description: as §2, §3
row,SMILES,MBC [µM]
1,"CNc1nc(NCc2ccccc2)nc2ccc(C3=CCCCC3)cc12 [Compound 29, N^2-Benzyl-6-(cyclohex-1-en-1-yl)-N^4-methylquinazoline-2,4-diamine]",16

# System: A. baumannii 1652 biofilm
# Test: biofilm eradication determination assay, strain 1652
# Format: cell-based, Acinetobacter baumannii
# Conditions: 90% biofilm eradication, Table 8
# Procedure: as §1
row,SMILES,MBEC90 1652 [µM]
1,"CNc1nc(NCc2ccccc2)nc2ccc(C3=CCCCC3)cc12 [Compound 29, N^2-Benzyl-6-(cyclohex-1-en-1-yl)-N^4-methylquinazoline-2,4-diamine]",77

# System: A. baumannii 1649 biofilm
# Test: biofilm eradication determination assay, strain 1649
# Format: cell-based, Acinetobacter baumannii
# Conditions: 90% biofilm eradication, Table 8
# Procedure: as §1
row,SMILES,MBEC90 1649 [µM]
1,"CNc1nc(NCc2ccccc2)nc2ccc(C3=CCCCC3)cc12 [Compound 29, N^2-Benzyl-6-(cyclohex-1-en-1-yl)-N^4-methylquinazoline-2,4-diamine]",58

# System: human HepG2 cells
# Test: not given
# Format: cell-based
# Conditions: at 12 μM
# Procedure: Cytotoxicity assays were performed using human HepG2 cells (human liver epithelial with hepatocellular carcinoma), as described by us previously.^17,24 Cells were cultured in Dulbecco's modified eagle medium (DMEM), supplemented with 10% fetal bovine serum and 1% penicillin-streptomycin for 3 days at 37° C. and 5% CO2. Cells were then diluted to 1×10^5 ml^−1 using fresh DMEM and added to 96 well tissue culture plates at a volume of 100 μL. Plates were incubated for 24 hours at 37° C. and 5% CO2, allowing the cells to adhere to the plastic. […] Plates were then incubated for 48 hours at 37° C. and 5% CO2. After 48 hours the DMEM was removed and 100 μL of new media was added containing MTT (3-(4, 5-dimethylthiazol-2-yl)-2, 5-diphenyltetrazolium bromide), followed by incubation for four hours at 37° C. and 5% CO2. […] Lead compounds were solvated in 100% DMSO for these studies, which served as the negative control. LD50 values were determined for each compound by comparison to vehicle only controls.
row,SMILES,HepG2 cell viability [%]
1,"CNc1nc(NCc2ccccc2)nc2ccc(C3=CCCCC3)cc12 [Compound 29, N^2-Benzyl-6-(cyclohex-1-en-1-yl)-N^4-methylquinazoline-2,4-diamine]",42

# Same assay, conditions: at 25 μM (highest concentration tested)
row,SMILES,HepG2 cell viability [%]
1,"CNc1nc(NCc2ccccc2)nc2ccc(C3=CCCCC3)cc12 [Compound 29, N^2-Benzyl-6-(cyclohex-1-en-1-yl)-N^4-methylquinazoline-2,4-diamine]",32

# Same assay, conditions: human, 48 h
row,SMILES,LD50(HepG2) [µM]
1,"CNc1nc(NCc2ccccc2)nc2ccc(C3=CCCCC3)cc12 [Compound 29, N^2-Benzyl-6-(cyclohex-1-en-1-yl)-N^4-methylquinazoline-2,4-diamine]",23

# System: A. baumannii 1652
# Test: MIC assay, strain 1652
# Format: cell-based, Acinetobacter baumannii
# Conditions: Acinetobacter baumannii; strain 1652; Tables 1, 3, 4, 5 and footnotes; read-out: 1652 MIC
# Procedure: as §3
row,SMILES,MIC [µM]
1,"CNc1nc(NCc2ccccc2)nc2ccc(C3=CCCCC3)cc12 [Compound 29, N^2-Benzyl-6-(cyclohex-1-en-1-yl)-N^4-methylquinazoline-2,4-diamine]",30

# Same assay, conditions: Acinetobacter baumannii; strain 1652; lead quinazolines, Table 8; read-out: MIC 1652
row,SMILES,MIC [µM]
1,"CNc1nc(NCc2ccccc2)nc2ccc(C3=CCCCC3)cc12 [Compound 29, N^2-Benzyl-6-(cyclohex-1-en-1-yl)-N^4-methylquinazoline-2,4-diamine]",30
